Reference: US5962424A, “Methods and compositions for targeting selectins” (Arch Development Corporation, priority 1995, dated 1999)

Legend:
[1] = test system: E-selectin production in irradiated HUVEC; test: x-ray-mediated E-selectin induction in HUVEC after inhibitor pretreatment (antibody labeling, flow cytometry); type: cell-based, human; details: H7 100 nM, staurosporin 10 nM, BPB 10 μM, mepacrine 20 μM added prior to irradiation
Procedure: HUVEC and HMEC cells were grown to 90% confluence and irradiated with a GE Maxitron x-ray generator as previously described (Hallahan et al., 1989). Cells were removed from flasks with 0.1% collagenase, 0.01% EDTA, 0.25% BSA and pelleted in 12×75 mm polystyrene tubes. The supernatant was discarded and the cells were incubated with primary IgG1 antibody (mouse anti-human ICAM-1 and E-selectin-1; R&D Systems, Inc., Minneapolis,MN) for 20 min at 4° C.
The cells were then rinsed with isotonic phosphate buffered saline (PBS), pelleted and incubated with FITC-conjugated secondary antibody (goat anti-mouse IgG1) for 20 min at 4° C. The fluorescently labeled cells were rinsed in PBS and fixed in PBS containing 0.01% paraformaldehyde.
Fluorescence activated cell sorting (FACS) analysis was utilized for quantitation of receptor expression of ICAM-1 and E-selectin on HUVEC. The Becton Dickinson FACScanner was used with Lysis II software. Forward and side scatter fluorescence data identified 10,000 viable endothelial cells in each experimental group for unlabeled cells, nonspecific-antibody-labelled cells, ICAM-1-labeled cells and E-selectin-labeled cells. Fluorescence data were then accumulated on each group of 10,000 cells at 530 nm, the wavelength emitted by FITC.
The fluorescence data were expressed as histograms of events versus log fluorescence and analyzed in comparison to the autofluorescence of unlabelled cells as well as the fluorescence of baseline ICAM-1 labelled or E-selectin-1 labeled cells as appropriate. During inhibition studies, PKC inhibitors H7 100 nM and staurosporin 10 nM or Phospholipase A2 inhibitors BPB 10 μM or mepacrine 20 μM were added to cell cultures 30 min prior to irradiation.
PKC participates in both NFkB activation and signal transduction initiated by ionizing radiation (Hallahan et al., 1991). Furthermore, PLA2 participates in free-radical and x-ray-mediated PKC activation and gene induction (Hallahan et al., 1991). To determine whether PLA2 or PKC activation is required for radiation-mediated E-selectin induction, the inventors added the PKC inhibitors H7 and staurosporin or the PLA2 inhibitors BPB or mepacrine to HUVEC […] prior to irradiation. Following irradiation, cells were scraped and E-selectin was quantified by antibody labeling and flow cytometry.

[2] = test system: selectin; details: cited from earlier work; for blocking of selectin binding to sLe^x: in vitro
[3] = test system: HL60 cells / irradiated HUVECs; test: adherence of HL60 cells to irradiated HUVECs; type: cell-based, human; details: 1 mM; added 4 h after 10 Gy irradiation, 30 min prior to HL60 cells
Procedure: Human leukemia cell line HL60 has been used to quantify leukocyte adhesion to endothelial cells (Jones et al., 1995). HL60 cells were added to HUVECs after exposure to 10 Gy or cells treated with otherwise identical conditions without irradiation. Cultures were washed and cells were counted using a hemocytometer. […] Glycyrrhizin, carminic acid or sialyl Lewis X (1 mM each, SIGMA) were added to irradiated cells at 4 h after irradiation and 30 min prior to the addition of HL60 cells.

[4] = test system: E-selectin; details: competitive binding assay, cited from earlier work
[5] = rats, oral; cited from earlier work

O=C(CBr)c1ccc(Br)cc1 [BPB]
radiation-mediated E-selectin production [1]: not attenuated

CC1CNCCN1S(=O)(=O)c1cccc2cnccc12 (stereo not shown) [H7]
radiation-mediated E-selectin production [1]: not attenuated

CN[C@@H]1C[C@H]2O[C@@](C)([C@@H]1OC)n1c3ccccc3c3c4c(c5c6ccccc6n2c5c31)C(=O)NC4 [staurosporin]
radiation-mediated E-selectin production [1]: not attenuated

Cc1c(C(=O)O)c(O)cc2c1C(=O)c1c(O)c([C@@H]3O[C@H](CO)[C@@H](O)[C@H](O)[C@H]3O)c(O)c(O)c1C2=O [carminic acid]
blocking of selectin binding to sLe^x [2]: blocked selectin binding at concentrations comparable to those of glycyrrhizin
adherence of HL60 cells to irradiated HUVECs [3]: blocked the adherence

CC(=O)N[C@H]1[C@H]([C@H](O)[C@H](O)CO)O[C@@](O[C@H]2[C@@H](O)[C@@H](CO)O[C@@H](O[C@H]3[C@H](O[C@@H]4O[C@@H](C)[C@@H](O)[C@@H](O)[C@@H]4O)[C@@H](NC(C)=O)C(O)O[C@@H]3CO)[C@@H]2O)(C(=O)O)C[C@@H]1O (stereo partly shown) [sialyl Lewis X, Neu5Acα2-3Galβ1-4[Fucα1-3]GlcNAc]
adherence of HL60 cells to irradiated HUVECs [3]: blocked the adherence

CC1(C)[C@@H](O)CC[C@]2(C)[C@H]3C(=O)C=C4[C@@H]5C[C@@](C)(C(=O)O)CC[C@]5(C)CC[C@@]4(C)[C@]3(C)CC[C@@H]12 [18-β-glycyrrhetinic acid]
IC50 ([2]; read-out: IC50 (blocking selectin activity)): > 2000 µM

COC(=O)CCCCCCCCO[C@@H]1O[C@H](CO)[C@@H](O[C@@H]2O[C@@H](C)[C@@H](O)[C@@H](O)[C@@H]2O)[C@H](O[C@@H]2O[C@H](CO)[C@H](O)[C@H](O[C@]3(C(=O)O)C[C@H](O)[C@@H](NC(C)=O)[C@H]([C@H](O)[C@H](O)CO)O3)[C@H]2O)[C@H]1N [amino substituted sLe^a]
activity relative to the reducing tetrasaccharide sLe^x [4]: 36 fold
IC50 ([4]; read-out: IC50 (blocking of E-selectin)): 21 ± 3 µM

CC1(C)[C@@H](O[C@H]2O[C@H](C(=O)O)[C@@H](O)[C@H](O)[C@H]2O[C@@H]2O[C@H](C(=O)O)[C@@H](O)[C@H](O)[C@H]2O)CC[C@]2(C)[C@H]3C(=O)C=C4[C@@H]5C[C@@](C)(C(=O)O)CC[C@]5(C)CC[C@@]4(C)[C@]3(C)CC[C@@H]12 [Glycyrrhizin]
blocking of selectin binding to sLe^x [2]: block selectin binding
adherence of HL60 cells to irradiated HUVECs [3]: blocked the adherence
absorption from the gut [5]: poorly absorbed

CCN(CC)CCCC(C)Nc1c2ccc(Cl)cc2nc2ccc(OC)cc12 (stereo not shown) [mepacrine]
radiation-mediated E-selectin production [1]: not attenuated
